Experimental data reported in US20160194299A1 (priority 2013, published 2016).

Tests used:
Mtb [1] = test: microbe, parasite or virus in culture; type: cell-based, Mycobacterium tuberculosis
Mtb [2] = test: microbe, parasite or virus in culture; type: cell-based, Mycobacterium tuberculosis; remark: listed apart in the source

| SMILES | MIC (I) (Mtb [1]) | LC50 (IV) (Vero cells) | MIC (III) (Mtb [2]) |
| --- | --- | --- | --- |
| O=C(NC(=O)c1ccsc1NC(=O)c1nc2ccccc2s1)OCCF [Compound 20] | A (key: A: <1 μg/mL; B: 1-3 μg/mL; C: >3 μg/mL) | C (key: A: >50 μg/mL; B: 50-25 μg/mL; C: <25 μg/mL) |  |
| CCOC(=O)NC(=O)c1ccsc1NC(=O)c1n[nH]c2cc(C)ccc12 [Compound 120] | C (key: A: <1 μg/mL; B: 1-3 μg/mL; C: >3 μg/mL) | A (key: A: >50 μg/mL; B: 50-25 μg/mL; C: <25 μg/mL) | C (key: A: <5 μg/mL; B: 5-25 μg/mL; C: >25 μg/mL) |
| CCOC(=O)NC(=O)c1ccsc1NC(=O)c1n[nH]c2cc(C#N)ccc12 [Compound 128] | C (key: A: <1 μg/mL; B: 1-3 μg/mL; C: >3 μg/mL) | A (key: A: >50 μg/mL; B: 50-25 μg/mL; C: <25 μg/mL) | C (key: A: <5 μg/mL; B: 5-25 μg/mL; C: >25 μg/mL) |
| CCOC(=O)NC(=O)c1ccsc1NC(=O)c1n[nH]c2cc(Cl)ccc12 [Compound 134] | C (key: A: <1 μg/mL; B: 1-3 μg/mL; C: >3 μg/mL) | A (key: A: >50 μg/mL; B: 50-25 μg/mL; C: <25 μg/mL) | C (key: A: <5 μg/mL; B: 5-25 μg/mL; C: >25 μg/mL) |
| CCOC(=O)NC(=O)c1ccsc1NC(=O)c1nc(=O)[nH]c2ccccc12 [Compound 141] | C (key: A: <1 μg/mL; B: 1-3 μg/mL; C: >3 μg/mL) | A (key: A: >50 μg/mL; B: 50-25 μg/mL; C: <25 μg/mL) | C (key: A: <5 μg/mL; B: 5-25 μg/mL; C: >25 μg/mL) |
| COC(=O)CCCNC(=O)c1ccsc1NC(=O)c1nc2ccccc2s1 [Compound 237] |  | B (key: A: >50 μg/mL; B: 50-25 μg/mL; C: <25 μg/mL) |  |
| CN1CCC(NC(=O)c2ccsc2NC(=O)c2nc3ccccc3s2)CC1 [Compound 255] | C (key: A: <1 μg/mL; B: 1-3 μg/mL; C: >3 μg/mL) | A (key: A: >50 μg/mL; B: 50-25 μg/mL; C: <25 μg/mL) | C (key: A: <5 μg/mL; B: 5-25 μg/mL; C: >25 μg/mL) |
| O=C(Nc1sccc1C(=O)N1CCN(C2CC2)CC1)c1nc2ccccc2s1 [Compound 256] | C (key: A: <1 μg/mL; B: 1-3 μg/mL; C: >3 μg/mL) | C (key: A: >50 μg/mL; B: 50-25 μg/mL; C: <25 μg/mL) | B (key: A: <5 μg/mL; B: 5-25 μg/mL; C: >25 μg/mL) |
| O=C(Nc1sccc1C(=O)N1CCSCC1)c1nc2ccccc2s1 [Compound 261] | C (key: A: <1 μg/mL; B: 1-3 μg/mL; C: >3 μg/mL) | A (key: A: >50 μg/mL; B: 50-25 μg/mL; C: <25 μg/mL) | C (key: A: <5 μg/mL; B: 5-25 μg/mL; C: >25 μg/mL) |
| O=C(NC(=O)c1ccsc1NC(=O)c1nc2cnccc2s1)OC(c1ccccc1)C(F)(F)F (stereo not drawn) [Compound 304] | B (key: A: <1 μg/mL; B: 1-3 μg/mL; C: >3 μg/mL) | B (key: A: >50 μg/mL; B: 50-25 μg/mL; C: <25 μg/mL) | C (key: A: <5 μg/mL; B: 5-25 μg/mL; C: >25 μg/mL) |
| O=C(NC(=O)c1ccsc1NC(=O)c1cn2ccccc2n1)OC1CCCC1 [Compound 348] | C (key: A: <1 μg/mL; B: 1-3 μg/mL; C: >3 μg/mL) | B (key: A: >50 μg/mL; B: 50-25 μg/mL; C: <25 μg/mL) | C (key: A: <5 μg/mL; B: 5-25 μg/mL; C: >25 μg/mL) |
| CCOC(=O)NC(=O)c1ccsc1NC(=O)c1ccc2[nH]ncc2c1 [Compound 350] | C (key: A: <1 μg/mL; B: 1-3 μg/mL; C: >3 μg/mL) | B (key: A: >50 μg/mL; B: 50-25 μg/mL; C: <25 μg/mL) | C (key: A: <5 μg/mL; B: 5-25 μg/mL; C: >25 μg/mL) |
| CC(C)OC(=O)NC(=O)c1ccsc1NC(=O)c1ccc2[nH]ncc2c1 [Compound 351] | C (key: A: <1 μg/mL; B: 1-3 μg/mL; C: >3 μg/mL) | B (key: A: >50 μg/mL; B: 50-25 μg/mL; C: <25 μg/mL) | C (key: A: <5 μg/mL; B: 5-25 μg/mL; C: >25 μg/mL) |
| CCOC(=O)NC(=O)c1ccsc1NC(=O)c1cnc2cc[nH]c2c1 [Compound 355] | C (key: A: <1 μg/mL; B: 1-3 μg/mL; C: >3 μg/mL) | B (key: A: >50 μg/mL; B: 50-25 μg/mL; C: <25 μg/mL) | C (key: A: <5 μg/mL; B: 5-25 μg/mL; C: >25 μg/mL) |
